The source of these data is patent US11660319B2, “Compositions comprising bacterial strains” (priority 2017, dated 2023).

In experiment [1] the test system is mouse Splenocytes. The experiment can be described thus: Spleen cytokine assay ex vivo (LPS or ConA stimulation). The format is in vivo. Here is the method:
Spleens were collected immediately in 5 mL RPMI media following sacrifice and cultured immediately. Spleen cells were first homogenised in this RPMI media, followed by 5 mins incubation with 1 ml of RBC lysis buffer (11814389001 ROCHE, Sigma). A further 10 ml of RPMI media was added, followed by 200G centrifugation for 5 mins. The supernatant was then filtered through 40 um strainer. Cells were counted and seeded (4,000,000/mL media). After 2.5 h of adaptation, cells were stimulated with lipopolysaccharide (LPS-2 μg/ml) or concanavalin A (ConA-2.5 μg/ml) for 24 h. Following stimulation, the supernatants were harvested to assess the cytokine release using Proinflammatory Panel 1 (mouse) V-PLEX Kit (Meso Scale Discovery, Maryland, USA) for TNFα, IL-10, IL-1β, Interferon γ, CXCL2 and IL6. The analyses were performed using MESO QuickPlex SQ 120, SECTOR Imager 2400, SECTOR Imager 6000, SECTOR S 600.
The ex-vivo splenocyte assay involves challenging the splenocytes (cells isolated from the spleen—a main organ involved in immune defense), with a bacterio- or viral-mimetic challenge.

Experiment [2] has as its system HDAC. The experiment can be described thus: HDAC inhibition on whole HT-29 cells and HT-29 cell lysate. It counts as cell-based. The method, then:
Bacterial culture and cell-free supernatant collection Pure cultures of bacteria were grown anaerobically in YCFA broth until they reached their stationary growth phase. Cultures were centrifuged at 5,000×g for 5 minutes and the cell-free supernatant (CFS) was filtered using a 0.2 μM filter (Millipore, UK). 1 mL aliquots of the CFS were stored at −80° C. until use. Sodium butyrate, hexanoic and valeric acid were obtained from Sigma Aldrich (UK) and suspensions were prepared in YCFA broth.
To investigate which metabolites were responsible for the strain-induced HDAC inhibition, different concentrations of hexanoic acid, valeric acid and sodium butyrate were measured for their HDAC inhibition on whole HT-29 cells and on HT-29 cell lysate.

For experiment [3], the system named is differentiated neuroblasoma cells. The experiment can be described thus: BDNF secretion in SHSY-5Y cells. It counts as cell-based, human. Conditions: in combination with retinoic acid (10 μM, differentiation); 50 μl bacteria SN. Here is the method:
SH-SY5-SY were plated in 24 wells plate at density of 60,000 cells/well and placed in the incubator. After 24 h, media were replaced with differentiation medium (growth medium containing 1% FBS) and 10 μM retinoic acid. Differentiation medium was replaced every other day and cells were used on day 10 of differentiation. For the treatment differentiation medium was removed and replaced with 450 ul of full growth media and 50 μl of bacteria SN was added to the treated wells or YCFA+ was added as negative Control.

Experiment [4] relates to SH-SY5Y neuroblastoma cells. The experiment can be described thus: Neuroprotection / cell viability of neuroblastoma cells treated with MPP (CCK-8). It counts as cell-based, human.
Experimental: Once grown the SH-SY5Y neuroblastoma cells were plated on 96-well plate at 11,000 cells/well and incubated for 2 days. The cells were then transferred to differentiation medium (which contains FBS at 1%) and 10 uM retinoic acid (Sigma Aldrich, cat. n. R2625-100MG). Differentiation medium was replaced every other day and cells were harvested at 7 day of differentiation. Cells were pre-treated with or without MPP (Sigma Aldrich, cat. n. D048-1G) for 8 hours. Subsequently, cells were treated with 10% bacterial supernatant and incubated overnight. Cell viability was measured by using CCK-8 reagent (Sigma Aldrich, Cell Counting Kit-8, cat. n. 96992-3000TESTS-F) and read at 450 nm wavelength.
The test system of experiment [5] is co-culture of human glioblastoma astrocytoma cells and neuroblastoma cells. The experiment can be described thus: α-synuclein-induced IL-6 secretion in co-culture. The format is cell-based. The conditions noted are these: 25 μg/ml α-synuclein (Wt, A53T, E46K), 10% bacteria supernatant, 48 hrs. Here is the method:
SHSY5Y cells were plated on 12 well plates at a density of 50,000 cells/well. The cells were grown in 50% MEM and 50% Nutrient Mixture F-12 Ham media supplemented with 2 mM L-Glutamine, 10% heat inactivated FBS, 100 U/ml penicillin, 100 μg/ml streptomycin. Cells on growth medium were plated on 96-well plate at 11,000 cells/well and placed in the incubator. After 2 days, media were replaced with differentiation medium (growth medium containing 1% FBS) and 10 μM retinoic acid. Differentiation medium was replaced every other day and cells were used after 7 days of differentiation. U373 were plated on 12 transwell plates (0.4 μm polyester membrane, Costar) at a density of 50,000 cells/well for 72 hrs. Cells were co-cultured together for 24 hrs before treatment in differentiation medium (growth medium containing 1% FBS without retinoic acid).
Thereafter cells were treated with 25 μg/ml α-synuclein (Wt, A53T, E46K) in the presence or absence of 10% bacteria supernatant for 48 hrs. Cell free Supernatants were collected, spun-down at 10000 g for 3 min at 4° C., aliquoted and stored at −80° C. Human IL-6 and IL-8 were measured as described above.

The test system of experiment [6] is BALBc mice. The experiment can be described thus: Ex vivo gene expression in colon and ileum of mice fed with bacteria. Also on record: species or system mouse. Here is the method:
Animals were allowed to habituate to their holding room for one week after arrival into the animal unit. They receive oral gavage (200 μL dose) of live biotherapeutics at a dose of 1×10^9 CFU for 6 consecutive days between 15:00 and 17:00. On day 7, the animals are decapitated, and tissues are harvested for experimentation. The in vitro results were compared with data from the ex vivo parallel analysis on the gut of mice fed with […] expression of TJP2 and occludin was quantified in the colon and ileum. […] Total RNA was extracted using the mirVanaTM miRNA Isolation kit (Ambion/Llife technologies, Paisley, UK) and DNase treated (Turbo DNA-free, Ambion/life technologies) according to the manufacturers recommendations. RNA was quantified using NanoDropTM spectrophotometer (Thermo Fisher Scientific Inc., Wilmington, Del., USA) according to the manufacturer's instructions. RNA quality was assessed using the Agilent Bioanalyzer (Agilent, Stockport, UK) according to the manufacturer's procedure and an RNA integrity number (RIN) was calculated. […] RNA was reverse transcribed to cDNA using the Applied Biosystems High Capacity cDNA kit (Applied Biosystems, Warrington, UK) according to manufacturer's instructions. Briefly, Multiscribe Reverse Transcriptase (50 U/μL) (1)(2)(1)(10) was added as part of RT master mix, incubated for 25° C. for 10 min, 37° C. for 2 h, 85° C. for 5 min and stored at 4° C. Quantitative PCR was carried out using probes (6 carboxy fluorescein-FAM) designed by Applied Biosystems to mouse specific targeted genes, while using β-actin as an endogenous control. Amplification reactions contained 1 μl cDNA, 5 μl of the 2× PCR Master mix (Roche), 900 nM of each primer and were brought to a total of 10 μl by the addition of RNase-free water. All reactions were performed in triplicate using 96-well plates on the LightCycler®480 System. Thermal cycling conditions were as recommended by the manufacturer (Roche) for 55 cycles. To check for amplicon contamination, each run contained no template controls in triplicate for each probe used. Cycle threshold (Ct) values were recorded. Data was normalized using β-actin and transformed using the 2-ΔΔCT method and presented as a fold change vs. control group.

As for Megasphaera massiliensis [MRx0029], in experiment [1] (challenge with LPS), the interleukin-6 in splenocytes entry is “reduction”, the interleukin-113 in splenocytes entry is given as “reduction” and the “levels of interferon-γ in splenocytes” value is on record as “reduction”. Further, in experiment [1] (splenocytes), the “levels of the chemoattractant CXCL1” value is “increase”. Moreover, in experiment [2] (HT-29 cell lysate), the “HDAC inhibition, HT29 cell lysate” value is listed as “strong HDAC inhibition”. In experiment [2] (whole HT-29 cells), the “HDAC inhibition, HT29 whole cell” value is on record as “strong HDAC inhibition”. Besides, the “secretion of BDNF” value in experiment [3] is listed as “increases”. In addition, the proliferation of neurons entry in experiment [4] (10% bacterial supernatant, without MPP) is “increase”. For the same substance, the “cell viability of cells treated with MPP” value in experiment [4] (MPP pre-treatment 8 hours, then 10% bacterial supernatant overnight, compared to MPP alone) was “rescued viability more than the positive control”. Besides, the “protection from MPP+ (cell viability)” value in experiment [4] (RA-differentiated SHSY-5Y cells treated with MPP+) is listed as “complete protection”. In experiment [4] (RA-differentiated SHSY-5Y cells, per se (no MPP+)), the mitochondria metabolic activity result is given as “increase”. The “α-syn-induced secretion of IL-6” value in experiment [5] is on record as “greatest”. Moreover, the “expression tryptophan hydroxylase-1 (Tph1)” value in experiment [6] (colon) is recorded as “significantly increase”. Further, the “TJP1 expression in colon” value in experiment [6] (colon region of the murine intestine) is “significantly up-regulate”. In addition, in experiment [6] (colon region of the murine intestine, p=0.073), the “Occludin expression in colon” value was “significantly up-regulate”.
